Read-outs that look alike come from different tables or passages of the source.
Molecular target: Nav 1.7 (Homo sapiens (Human), UniProt Q15858)
Test: Nav 1.7 IWQ in vitro assay (IonWorks Quattro population patch-clamp)
Assay type: cell-based
Settings: for IC50: 293 cells stably transfected with Nav 1.7
Procedure: Nav 1.7 or Nav 1.5 IWQ In Vitro Assay
293 Cells stably transfected with either Nav 1.7 or Nav 1.5 were recorded in population patch-clamp mode with the IonWorks® Quattro automated electrophysiology system in accordance with the manufacturer's specifications (Molecular Devices, LLC, Sunnyvale, Calif.). Sodium channel currents were measured in response to a train of depolarizations that induced successively greater inactivation.
Cells were then left unclamped for a period of 3 to 8 minutes while a single concentration of test compound was added. Cells were then reclamped and put through the same voltage protocol. Current at the end of the 26th pulse to −20 mV was subtracted from the peak current evoked by the 26th pulse to −20 mV to correct for leak current. Percent block was calculated for each concentration in duplicate, and IC50 curves were fitted to percent block as a function of concentration.

[1] = first part of table, read-out: Nav 1.7 IWQ IC50
[2] = second part of table, read-out: Nav1.7 IWQ IC50 IP

Nav 1.7, sequence (Q15858 whole entry): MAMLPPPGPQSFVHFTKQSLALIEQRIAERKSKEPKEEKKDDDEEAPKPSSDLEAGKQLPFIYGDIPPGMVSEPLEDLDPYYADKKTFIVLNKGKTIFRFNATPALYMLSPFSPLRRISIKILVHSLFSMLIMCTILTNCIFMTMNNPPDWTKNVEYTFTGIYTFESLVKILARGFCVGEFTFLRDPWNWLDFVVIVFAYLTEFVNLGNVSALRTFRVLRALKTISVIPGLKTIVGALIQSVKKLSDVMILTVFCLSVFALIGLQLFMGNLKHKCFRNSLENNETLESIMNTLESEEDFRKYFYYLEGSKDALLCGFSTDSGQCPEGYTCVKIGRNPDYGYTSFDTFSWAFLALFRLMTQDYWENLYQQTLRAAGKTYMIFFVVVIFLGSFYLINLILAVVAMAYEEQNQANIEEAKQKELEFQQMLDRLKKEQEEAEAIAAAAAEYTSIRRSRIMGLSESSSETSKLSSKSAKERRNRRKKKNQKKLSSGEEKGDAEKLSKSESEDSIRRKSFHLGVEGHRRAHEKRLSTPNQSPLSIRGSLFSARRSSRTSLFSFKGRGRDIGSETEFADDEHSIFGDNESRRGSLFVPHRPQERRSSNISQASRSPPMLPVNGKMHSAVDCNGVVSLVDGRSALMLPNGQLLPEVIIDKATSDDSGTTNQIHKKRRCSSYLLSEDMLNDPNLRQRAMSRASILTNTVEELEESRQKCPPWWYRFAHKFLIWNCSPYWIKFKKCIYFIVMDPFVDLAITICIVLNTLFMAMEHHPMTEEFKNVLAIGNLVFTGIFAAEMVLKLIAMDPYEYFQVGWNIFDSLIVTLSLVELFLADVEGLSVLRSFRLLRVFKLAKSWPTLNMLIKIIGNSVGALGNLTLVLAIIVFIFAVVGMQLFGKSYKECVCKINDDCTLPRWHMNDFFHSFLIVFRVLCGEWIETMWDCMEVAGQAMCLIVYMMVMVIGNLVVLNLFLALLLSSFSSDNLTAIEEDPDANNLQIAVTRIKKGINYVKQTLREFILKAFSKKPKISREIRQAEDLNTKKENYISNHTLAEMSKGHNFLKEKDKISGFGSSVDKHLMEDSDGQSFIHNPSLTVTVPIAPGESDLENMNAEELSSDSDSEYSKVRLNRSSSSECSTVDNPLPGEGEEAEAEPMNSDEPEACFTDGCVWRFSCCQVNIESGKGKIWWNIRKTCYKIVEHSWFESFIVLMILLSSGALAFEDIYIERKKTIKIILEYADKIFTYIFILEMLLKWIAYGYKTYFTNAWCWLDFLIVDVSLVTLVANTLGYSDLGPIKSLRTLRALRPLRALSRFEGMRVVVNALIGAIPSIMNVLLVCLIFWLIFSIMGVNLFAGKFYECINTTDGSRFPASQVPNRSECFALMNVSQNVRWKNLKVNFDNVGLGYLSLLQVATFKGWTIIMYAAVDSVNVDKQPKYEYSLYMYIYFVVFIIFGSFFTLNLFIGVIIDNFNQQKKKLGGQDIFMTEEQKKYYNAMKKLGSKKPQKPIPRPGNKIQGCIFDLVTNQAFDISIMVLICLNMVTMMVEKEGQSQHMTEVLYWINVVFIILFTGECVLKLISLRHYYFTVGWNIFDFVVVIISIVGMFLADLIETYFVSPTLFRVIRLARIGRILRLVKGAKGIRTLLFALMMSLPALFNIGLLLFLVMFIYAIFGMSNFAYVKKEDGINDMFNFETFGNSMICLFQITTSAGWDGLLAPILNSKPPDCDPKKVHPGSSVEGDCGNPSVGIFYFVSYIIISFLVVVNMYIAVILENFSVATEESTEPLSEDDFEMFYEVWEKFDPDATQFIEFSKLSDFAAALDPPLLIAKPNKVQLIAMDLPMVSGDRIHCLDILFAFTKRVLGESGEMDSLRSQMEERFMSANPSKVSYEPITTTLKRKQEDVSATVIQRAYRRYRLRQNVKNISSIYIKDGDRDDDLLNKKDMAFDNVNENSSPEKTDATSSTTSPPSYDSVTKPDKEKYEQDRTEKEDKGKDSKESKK

## COc1cc(OC)c(-c2nccc3cc(S(=O)(=O)Nc4ncns4)ccc23)c(OC)c1 [Example 60, N-(1,2,4-THIADIAZOL-5-YL)-1-(2,4,6-TRIMETHOXYPHENYL)ISOQUINOLINE-6-SULFONAMIDE]
[1]
  IC50: 1560 nM

## COc1cnccc1-c1nccc2cc(S(=O)(=O)Nc3ccncn3)ccc12 [Example 169, 1-(3-METHOXYPYRIDIN-4-YL)-N-(PYRIMIDIN-4-YL)ISOQUINOLINE-6-SULFONAMIDE]
[2]
  IC50: 5170 nM

## O=S(=O)(Nc1ccncn1)c1ccc2c(-c3cccc4ccsc34)nccc2c1 [Example 162, 1-(BENZO[B]THIOPHEN-7-YL)-N-(PYRIMIDIN-4-YL)ISOQUINOLINE-6-SULFONAMIDE]
[2]
  IC50: 4120 nM

## Cn1ccnc1-c1nccc2cc(S(=O)(=O)Nc3nccs3)ccc12 [Example 315, 1-(1-METHYL-1H-IMIDAZOL-2-YL)-N-(THIAZOL-2-YL)ISOQUINOLINE-6-SULFONAMIDE 2,2,2-TRIFLUOROACETATE]
[2]
  IC50: > 10000 nM
  Nav1.7 Single Point Data IWQ (at […]) (%): 37%

## CN1CC=C(c2cc(C(F)(F)F)ccc2-c2nccc3cc(S(=O)(=O)Nc4nccs4)ccc23)CC1 [Example 72, 1-(2-(1-METHYL-1,2,3,6-TETRAHYDROPYRIDIN-4-YL)-4-(TRIFLUOROMETHYL)PHENYL)-N-(THIAZOL-2-YL)ISOQUINOLINE-6-SULFONAMIDE]
[1]
  IC50: 60 nM

## COc1cc(C(F)(F)F)ccc1-c1nccc2cc(S(=O)(=O)Nc3ccncn3)ccc12 [Example 67, 1-(2-METHOXY-4-(TRIFLUOROMETHYL)PHENYL)-N-(PYRIMIDIN-4-YL)ISOQUINOLINE-6-SULFONAMIDE]
[1]
  IC50: 80 nM

## Cn1nc(C(F)(F)F)cc1-c1nccc2cc(S(=O)(=O)Nc3ccncn3)ccc12 [Example 312, 1-(1-METHYL-3-(TRIFLUOROMETHYL)-1H-PYRAZOL-5-YL)-N-(PYRIMIDIN-4-YL)ISOQUINOLINE-6-SULFONAMIDE]
[2]
  IC50: > 10000 nM
  Nav1.7 Single Point Data IWQ (at […]) (%): 47%

## O=S(=O)(Nc1ncns1)c1ccc2c(N3CCOC(c4ccccc4)C3)cccc2c1 (single isomer, unassigned) [14 (isomer 1), 5-(2-phenylmorpholino)-N-(1,2,4-thiadiazol-5-yl)naphthalene-2-sulfonamide]
[1]
  IC50: 520 nM

## O=S(=O)(Nc1nccs1)c1ccc2c(N3CCCCC3c3cccnc3)ncnc2c1 (stereo not shown) [Example 536, 4-(2-(PYRIDIN-3-YL)PIPERIDIN-1-YL)-N-(THIAZOL-2-YL)QUINAZOLINE-7-SULFONAMIDE]
  Nav1.7 Single Point Data IWQ (at […]) (%): 28.3%

## O=S(=O)(Nc1ccncn1)c1ccc2c(OCCn3ccnn3)nccc2c1 [Example 296, 1-(2-(1H-1,2,3-TRIAZOL-1-YL)ETHOXY)-N-(PYRIMIDIN-4-YL)ISOQUINOLINE-6-SULFONAMIDE]
[2]
  IC50: > 10000 nM
  Nav1.7 Single Point Data IWQ (at […]) (%): 23%

## Cc1cc(C#N)ccc1-c1nccc2cc(S(=O)(=O)Nc3ccncn3)ccc12 [Example 159]
[2]
  IC50: 4830 nM

## O=S(=O)(Nc1ccncn1)c1ccc2c(C3CCCN3C3CCOCC3)nccc2c1 (stereo not shown) [Example 316, N-(PYRIMIDIN-4-YL)-1-(1-(TETRAHYDRO-2H-PYRAN-4-YL)PYRROLIDIN-2-YL)ISOQUINOLINE-6-SULFONAMIDE 2,2,2-TRIFLUOROACETATE]
[2]
  IC50: > 10000 nM
  Nav1.7 Single Point Data IWQ (at […]) (%): 26%

## COc1ccc(-c2nccc3cc(S(=O)(=O)Nc4ncns4)ccc23)c(OC)c1 [Example 59, 1-(2,4-DIMETHOXYPHENYL)-N-(1,2,4-THIADIAZOL-5-YL)ISOQUINOLINE-6-SULFONAMIDE]
[1]
  IC50: 60 nM

## COc1cc(-c2ncc(Cl)s2)ccc1-c1nccc2cc(S(=O)(=O)Nc3ccncn3)ccc12 [Example 458, 1-(4-(5-CHLOROTHIAZOL-2-YL)-2-METHOXYPHENYL)-N-(PYRIMIDIN-4-YL)ISOQUINOLINE-6-SULFONAMIDE]
  Nav1.7 Single Point Data IWQ (at […]) (%): 24.7%

## Cc1cnc(OC[C@@H]2CCOC2)c(-c2nccc3cc(S(=O)(=O)Nc4nccs4)ccc23)c1 [Example 387, (R)-1-(5-METHYL-2-((TETRAHYDROFURAN-3-YL)METHOXY)PYRIDIN-3-YL)-N-(THIAZOL-2-YL)ISOQUINOLINE-6-SULFONAMIDE]
  Nav1.7 Single Point Data IWQ (at […]) (%): 20.6%

## Cn1ncnc1COc1nccc2cc(S(=O)(=O)Nc3ccncn3)ccc12 [Example 295, 1-((1-METHYL-1H-1,2,4-TRIAZOL-5-YL)METHOXY)-N-(PYRIMIDIN-4-YL)ISOQUINOLINE-6-SULFONAMIDE]
[2]
  IC50: > 10000 nM
  Nav1.7 Single Point Data IWQ (at […]) (%): 36%

## O=C1CCCN1c1cccc2cc(S(=O)(=O)Nc3ncns3)ccc12 [Example 93]
[2]
  IC50: 7970 nM

## Cc1cc(S(=O)(=O)N(C)C)ccc1-c1nccc2cc(S(=O)(=O)Nc3ccncn3)ccc12 [Example 433]
  Nav1.7 Single Point Data IWQ (at […]) (%): 21.2%

## COc1cc(Cl)ccc1-c1cccc2cc(S(=O)(=O)Nc3nccs3)ccc12 [Example 46]
[1]
  IC50: 36 nM

## O=S(=O)(Nc1ncns1)c1ccc2c(-c3ccc(C(F)(F)F)cc3Cl)nccc2c1 [Example 56, 1-(2-CHLORO-4-(TRIFLUOROMETHYL)PHENYL)-N-(1,2,4-THIADIAZOL-5-YL)ISOQUINOLINE-6-SULFONAMIDE]
[1]
  IC50: 60 nM

## CCC1CN(c2cccc3cc(S(=O)(=O)Nc4ncns4)ccc23)CCO1 (stereo not shown) [Example 18]
[1]
  IC50: 710 nM

## O=S(=O)(Nc1ncns1)c1ccc2c(-c3ccc(Cl)cc3C(F)(F)F)nccc2c1 [Example 63, 1-(4-CHLORO-2-(TRIFLUOROMETHYL)PHENYL)-N-(1,2,4-THIADIAZOL-5-YL)ISOQUINOLINE-6-SULFONAMIDE]
[1]
  IC50: 330 nM

## COc1cc(-c2cnn(C)c2)ccc1-c1nccc2cc(S(=O)(=O)Nc3ccncn3)ccc12 [Example 454, 1-(2-METHOXY-4-(1-METHYL-1H-PYRAZOL-4-YL)PHENYL)-N-(PYRIMIDIN-4-YL)ISOQUINOLINE-6-SULFONAMIDE]
  Nav1.7 Single Point Data IWQ (at […]) (%): <20%

## Cn1ncc2cccc(-c3nccc4cc(S(=O)(=O)Nc5ccncn5)ccc34)c21 [Example 306, 1-(1-METHYL-1H-INDAZOL-7-YL)-N-(PYRIMIDIN-4-YL)ISOQUINOLINE-6-SULFONAMIDE]
[2]
  IC50: > 10000 nM
  Nav1.7 Single Point Data IWQ (at […]) (%): 35%

## O=S(=O)(Nc1ccncn1)c1ccc2c(OCc3cc4n(n3)CCCO4)nccc2c1 [Example 297, 1-((6,7-DIHYDRO-5H-PYRAZOLO[5,1-B][1,3]OXAZIN-2-YL)METHOXY)-N-(PYRIMIDIN-4-YL)ISOQUINOLINE-6-SULFONAMIDE]
[2]
  IC50: > 10000 nM
  Nav1.7 Single Point Data IWQ (at […]) (%): 38%

## Cc1cc2c(cnn2C)cc1-c1nccc2cc(S(=O)(=O)Nc3ccncn3)ccc12 [Example 308]
[2]
  IC50: > 10000 nM
  Nav1.7 Single Point Data IWQ (at […]) (%): 45%

## O=S(=O)(Nc1ncns1)c1ccc2c(N3CCOCC3)cccc2c1 [Example 13]
[1]
  IC50: 3560 nM

## O=S(=O)(Nc1ccncn1)c1ccc2c(-c3ccc(C(F)(F)F)cc3Br)nccc2c1 [Example 66, 1-(2-BROMO-4-(TRIFLUOROMETHYL)PHENYL)-N-(PYRIMIDIN-4-YL)ISOQUINOLINE-6-SULFONAMIDE]
[1]
  IC50: 120 nM

## COc1cc(C(F)(F)F)ccc1-c1cccc2cc(S(=O)(=O)Nc3ccncn3)ccc12 [Example 42]
[1]
  IC50: 50 nM

## Cn1cc(CCOc2nccc3cc(S(=O)(=O)Nc4ccncn4)ccc23)cn1 [Example 305, 1-(2-(1-METHYL-1H-PYRAZOL-4-YL)ETHOXY)-N-(PYRIMIDIN-4-YL)ISOQUINOLINE-6-SULFONAMIDE]
[2]
  IC50: > 10000 nM
  Nav1.7 Single Point Data IWQ (at […]) (%): 24%

## Cc1c(-c2nccc3cc(S(=O)(=O)Nc4ccncn4)ccc23)ccc2c1cnn2C [Example 307]
[2]
  IC50: > 10000 nM
  Nav1.7 Single Point Data IWQ (at […]) (%): 40%

## Cc1cnc(OCCN(C)C)c(-c2nccc3cc(S(=O)(=O)Nc4ccncn4)ccc23)c1 [Example 382, 1-(2-(2-(DIMETHYLAMINO)ETHOXY)-5-METHYLPYRIDIN-3-YL)-N-(PYRIMIDIN-4-YL)ISOQUINOLINE-6-SULFONAMIDE]
  Nav1.7 Single Point Data IWQ (at […]) (%): 27.8%

## COc1cc(C(F)(F)F)ccc1-c1nccc2cc(S(=O)(=O)Nc3cnncn3)ccc12 [Example 391, 1-(2-METHOXY-4-(TRIFLUOROMETHYL)PHENYL)-N-(1,2,4-TRIAZIN-5-YL)ISOQUINOLINE-6-SULFONAMIDE]
  Nav1.7 Single Point Data IWQ (at […]) (%): 34.8%

## CN1CC=C(c2cc(C(F)(F)F)ccc2-c2nccc3cc(S(=O)(=O)Nc4ccncn4)ccc23)CC1 [Example 68, 1-(2-(1-METHYL-1,2,3,6-TETRAHYDROPYRIDIN-4-YL)-4-(TRIFLUOROMETHYL)PHENYL)-N-(PYRIMIDIN-4-YL)ISOQUINOLINE-6-SULFONAMIDE]
[1]
  IC50: 1520 nM

## CC(C)c1ccc2[nH]ncc2c1-c1nccc2cc(S(=O)(=O)Nc3ccncn3)ccc12 [Example 430, 1-(5-ISOPROPYL-1H-INDAZOL-4-YL)-N-(PYRIMIDIN-4-YL)ISOQUINOLINE-6-SULFONAMIDE]
  Nav1.7 Single Point Data IWQ (at […]) (%): 35.4%

## CN1CC=C(c2cc(C(F)(F)F)ccc2-c2cccc3cc(S(=O)(=O)Nc4ccncn4)ccc23)CC1 [Example 76]
[1]
  IC50: 70 nM

## Cc1cccc(CCCOc2nccc3cc(S(=O)(=O)Nc4ccncn4)ccc23)n1 [Example 300, 1-(3-(6-METHYLPYRIDIN-2-YL)PROPOXY)-N-(PYRIMIDIN-4-YL)ISOQUINOLINE-6-SULFONAMIDE]
[2]
  IC50: > 10000 nM
  Nav1.7 Single Point Data IWQ (at […]) (%): 25%

## Cc1cnc(OC2CCCN(C)C2)c(-c2nccc3cc(S(=O)(=O)Nc4ccncn4)ccc23)c1 (stereo not shown) [Example 383, 1-(5-METHYL-2-((1-METHYLPIPERIDIN-3-YL)OXY)PYRIDIN-3-YL)-N-(PYRIMIDIN-4-YL)ISOQUINOLINE-6-SULFONAMIDE]
  Nav1.7 Single Point Data IWQ (at […]) (%): 30.2%

Reference: patent publication US9012443B2 (Amgen Inc., priority 2011, dated 2015)
